According to paper PMC11190208, “Bacterial c-di-GMP triggers metamorphosis of mussel larvae through a STING receptor” (NPJ Biofilms and Microbiomes, 2024):

Molecular target: T1, McSTING (Mytilus coruscus, UniProt A0A7U0FWW1)
T1 construct: gene STING-3; full-length 1-716aa, pColdIII vector, expressed in E. coli Rosetta
Experiment: SPR (OpenSPR, McSTING immobilised on COOH chip)
Format: binding
Text: SPR (OpenSPR, McSTING immobilised on COOH chip) on McSTING | concentration-dependent binding of the recombinant protein McSTING to synthetic c-di-GMP with a KD of […]

T1 sequence (A0A7U0FWW1 entry or part of it): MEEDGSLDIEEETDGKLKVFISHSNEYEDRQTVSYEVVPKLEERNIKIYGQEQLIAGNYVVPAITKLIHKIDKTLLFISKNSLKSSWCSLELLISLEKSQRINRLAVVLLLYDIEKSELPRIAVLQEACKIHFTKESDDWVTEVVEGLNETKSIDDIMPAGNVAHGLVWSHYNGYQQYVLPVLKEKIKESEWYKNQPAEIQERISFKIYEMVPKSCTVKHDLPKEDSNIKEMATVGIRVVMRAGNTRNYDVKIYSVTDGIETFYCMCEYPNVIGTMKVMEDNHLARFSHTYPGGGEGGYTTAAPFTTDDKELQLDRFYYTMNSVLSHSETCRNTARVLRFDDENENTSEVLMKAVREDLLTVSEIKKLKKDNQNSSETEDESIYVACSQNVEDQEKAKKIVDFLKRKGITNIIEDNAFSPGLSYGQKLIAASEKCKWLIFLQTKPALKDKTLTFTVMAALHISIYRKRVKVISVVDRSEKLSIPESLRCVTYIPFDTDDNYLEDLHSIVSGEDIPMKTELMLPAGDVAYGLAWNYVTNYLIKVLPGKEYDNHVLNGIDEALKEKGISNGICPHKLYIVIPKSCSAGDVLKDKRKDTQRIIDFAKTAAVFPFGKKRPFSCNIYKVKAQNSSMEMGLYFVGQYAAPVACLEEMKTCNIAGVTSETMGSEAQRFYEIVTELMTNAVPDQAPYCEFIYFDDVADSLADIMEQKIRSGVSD

Kd: 42.7 µM
SMILES: Nc1nc2c(ncn2[C@@H]2O[C@@H]3CO[P@](=O)(O)O[C@H]4[C@@H](O)[C@H](n5cnc6c(=O)[nH]c(N)nc65)O[C@@H]4CO[P@](=O)(O)O[C@H]3[C@H]2O)c(=O)[nH]1 [c-di-GMP]
